“And” between values parts separate entries of the source, which are not always exact repeats. Equal entries are not always repeated. Where two headings read alike, the source gives them in different places.
Columns and labels:
WT CqsS = system: T1, WT CqsS; assay type: biochemical; conditions: for % Total Phosphorylation: CqsS WT
T1 construct: made in house; host or cells: E. coli C43 (DE3), pET21b; used as inverted membrane vesicles

CqsS F166L = conditions: cited from earlier work
CqsS [1] = molecular target: T2, CqsS (Vibrio cholerae serotype O1, UniProt Q9KM66); assay type: cell-based; conditions: Strain WN1102
T2 construct: endogenous in cells; host or cells: V. cholerae WN1102 (ΔcqsA ΔluxQ/pBB1), derived from C6706str2

CqsS [2] = molecular target: T2, CqsS; assay: cell-based; conditions: for Light production: strain WN1102; for RLU: Strain WN1102

T2 sequence (Q9KM66 whole entry, looked up): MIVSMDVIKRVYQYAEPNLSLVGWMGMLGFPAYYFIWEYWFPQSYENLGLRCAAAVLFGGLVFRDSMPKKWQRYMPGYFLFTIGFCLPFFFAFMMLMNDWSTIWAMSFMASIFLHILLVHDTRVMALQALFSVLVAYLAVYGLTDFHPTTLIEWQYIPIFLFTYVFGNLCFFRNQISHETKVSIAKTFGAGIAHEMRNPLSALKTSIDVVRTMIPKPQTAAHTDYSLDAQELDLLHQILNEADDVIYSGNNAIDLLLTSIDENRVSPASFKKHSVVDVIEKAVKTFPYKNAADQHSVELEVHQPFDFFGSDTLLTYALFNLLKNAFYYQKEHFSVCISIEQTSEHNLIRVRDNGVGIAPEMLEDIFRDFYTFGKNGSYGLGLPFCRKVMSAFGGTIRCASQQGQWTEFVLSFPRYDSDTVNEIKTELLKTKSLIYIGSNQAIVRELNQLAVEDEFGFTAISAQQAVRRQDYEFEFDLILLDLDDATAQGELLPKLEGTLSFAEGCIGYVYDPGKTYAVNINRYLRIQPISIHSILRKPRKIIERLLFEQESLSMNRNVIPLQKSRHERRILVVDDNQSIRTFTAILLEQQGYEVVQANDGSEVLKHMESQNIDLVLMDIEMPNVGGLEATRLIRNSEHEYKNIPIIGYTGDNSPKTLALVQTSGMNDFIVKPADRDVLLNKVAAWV

CCCCCCCCCC(=O)[C@@H](O)CC [CAI-1, (S)-3-hydroxytridecan-4-one]
% Total Phosphorylation (WT CqsS; Agonist 0.01 uM): 102.493% and 101.697% and 101.306% | % Total Phosphorylation (WT CqsS; Agonist 0.1 uM): 89.3767% and 102.409% and 93.98% | % Total Phosphorylation (WT CqsS; Agonist 0.5 uM): 97.7615% and 100.304% and 88.309% and 81.2302% and 104.248% and 84.8997% and 78.17% and 83.6501% | % Total Phosphorylation (WT CqsS; Agonist 1 uM): 89.5575% and 94.3418% and 94.4031% and 65.5157% and 64.6244% | % Total Phosphorylation (WT CqsS; Agonist 2.5 uM): 63.4493% and 51.2966% and 78.14% and 56.8331% and 55.38% | % Total Phosphorylation (WT CqsS; Agonist 5 uM): 72.2411% and 75.0851% and 56.1286% and 43.0708% and 37.87% and 49.5683% | % Total Phosphorylation (WT CqsS; Agonist 75 uM): 26.5628% and 23.1908% and 29.77% and 22.6184% | % Total Phosphorylation (WT CqsS; Agonist 500 uM): 13.8148% and 19.6183% and 26.8103% and 17.4064% | % Total Phosphorylation (WT CqsS; Agonist 1000 uM): 22.144% and 17.5686% | inhibition of WT CqsS autophosphorylation (WT CqsS; saturating concentration (Fig 7B)): 80% | response of CqsS variant to CAI-1 (CqsS F166L): do not respond | RLU (CqsS [1]; CAI-1 0.0119209 nM): 2.86E+07 RLU | RLU (CqsS [1]; CAI-1 0.0476837 nM): 2.99E+07 RLU | RLU (CqsS [1]; CAI-1 0.190735 nM): 2.91E+07 RLU | RLU (CqsS [1]; CAI-1 0.762939 nM): 2.65E+07 RLU | RLU (CqsS [1]; CAI-1 3.05176 nM): 3.77E+07 RLU | RLU (CqsS [1]; CAI-1 12.207 nM): 1.29E+08 RLU | RLU (CqsS [1]; CAI-1 48.8281 nM): 1.08E+09 RLU | RLU (CqsS [1]; CAI-1 195.312 nM): 1.14E+10 RLU | RLU (CqsS [1]; CAI-1 781.25 nM): 7.27E+10 RLU | RLU (CqsS [1]; CAI-1 3125 nM): 1.12E+11 RLU | RLU (CqsS [1]; CAI-1 12500 nM): 1.47E+11 RLU | RLU (CqsS [1]; CAI-1 50000 nM): 1.61E+11 RLU | Light production (CqsS [2]; Agonist 0.0119209 nM): 12889 RLU and 8888.9 RLU and 6804.1 RLU | Light production (CqsS [2]; Agonist 0.0476837 nM): 14371 RLU and 11556 RLU and 14048 RLU | Light production (CqsS [2]; Agonist 0.190735 nM): 19162 RLU and 15751 RLU and 14725 RLU | Light production (CqsS [2]; Agonist 0.762939 nM): 27416 RLU and 24171 RLU and 21376 RLU | Light production (CqsS [2]; Agonist 3.05176 nM): 42278 RLU and 41455 RLU and 42909 RLU | Light production (CqsS [2]; Agonist 12.207 nM): 141302 RLU and 122637 RLU and 126432 RLU | Light production (CqsS [2]; Agonist 48.8281 nM): 2056727 RLU and 1989392 RLU and 2067742 RLU | Light production (CqsS [2]; Agonist 195.312 nM): 21777960 RLU and 20597350 RLU and 20387370 RLU | Light production (CqsS [2]; Agonist 781.25 nM): 68306990 RLU and 63315740 RLU and 60445960 RLU | Light production (CqsS [2]; Agonist 3125 nM): 107684000 RLU and 96526460 RLU and 89440220 RLU | Light production (CqsS [2]; Agonist 12500 nM): 110460000 RLU and 105858400 RLU and 100769600 RLU | Light production (CqsS [2]; Agonist 50000 nM): 108923600 RLU and 92244980 RLU and 92565550 RLU | RLU (CqsS [2]; agonist 0.0119209 nM): 6.03E+03 RLU and 5.88E+03 RLU and 4.06E+03 RLU | RLU (CqsS [2]; agonist 0.190735 nM): 1.26E+04 RLU and 1.57E+04 RLU and 1.42E+04 RLU | RLU (CqsS [2]; agonist 0.762939 nM): 2.01E+04 RLU and 2.32E+04 RLU and 2.34E+04 RLU | RLU (CqsS [2]; agonist 3.05176 nM): 2.95E+04 RLU and 3.11E+04 RLU and 2.71E+04 RLU | RLU (CqsS [2]; agonist 12.207 nM): 3.67E+04 RLU and 5.35E+04 RLU and 5.22E+04 RLU | RLU (CqsS [2]; agonist 48.8281 nM): 1.20E+05 RLU and 1.71E+05 RLU and 1.56E+05 RLU | RLU (CqsS [2]; agonist 195.312 nM): 4.96E+06 RLU and 5.24E+06 RLU and 3.77E+06 RLU | RLU (CqsS [2]; agonist 781.25 nM): 5.10E+07 RLU and 6.40E+07 RLU and 5.48E+07 RLU | RLU (CqsS [2]; agonist 3125 nM): 1.12E+08 RLU and 1.35E+08 RLU and 1.31E+08 RLU | RLU (CqsS [2]; agonist 12500 nM): 1.34E+08 RLU and 1.62E+08 RLU and 1.58E+08 RLU | RLU (CqsS [2]; agonist 50000 nM): 1.28E+08 RLU and 1.53E+08 RLU and 1.57E+08 RLU

From publication PMC5467912, “Asymmetric regulation of quorum-sensing receptors drives autoinducer-specific gene expression programs in Vibrio cholerae” (PLoS Genetics, 2017)
